# Test results as given in US20250386825A1, “Formulation for Applying to Vegetation” (Okipa Ltd, priority 2022, published 2025).
# Like-named read-outs stand apart in the source and are kept apart here.
# Test system: potato leaves
# Details: for damage on Aug. 8, 2022 (rating score) / damage on Aug. 16, 2022 (rating score) / damage on Aug. 22, 2022 (rating score): treatment on Aug. 5, 2022, Braunschweig, score 0-10, * p < 0.05 vs untreated
# Method: In addition to the direct control of weeds in arable farming and on non-crop land, the use of sodium saccharin for desiccation of potatoes was examined. Thus, the following variants were tested in a field test (soil type: sandy loam): (a) untreated, (b) 160 g/l and (c) 320 g/l sodium saccharin. In this example, the addition of an additive was deliberately avoided in order to assess the specific effect of sodium saccharin. The experimental design was a fully randomized block design with 3 replicates and a plot size of 2.25 m^2.
# In each case, a row of potatoes 3 m in length was applied using a 5 l hand-held sprayer (®Gloria) with a conventional annular nozzle at a pressure of 3-4 bar. As a result, the degree of damage was recorded in the form of the following rating score.
# Score (damage) of the potato leaves after treatment with Sodium saccharin (treatment on Aug. 5, 2022, Braunschweig, conventional cultivation)
smiles,measurement,setting,value
"O=C1NS(=O)(=O)c2ccccc21.[Na] [Sodium saccharin, sodium saccharin]","damage on Aug. 8, 2022 (rating score)","160 g/l, no additive",1.3*
same,"damage on Aug. 16, 2022 (rating score)","160 g/l, no additive",5.3*
same,"damage on Aug. 22, 2022 (rating score)","160 g/l, no additive",8.3*
same,"damage on Aug. 8, 2022 (rating score)","320 g/l, no additive",3.3*
same,"damage on Aug. 16, 2022 (rating score)","320 g/l, no additive",7.7*
same,"damage on Aug. 22, 2022 (rating score)","320 g/l, no additive",9.3*
same,desiccation of potato leaves (trend in words),"field test, 160 g/l and 320 g/l, no additive",sufficiently desiccated
same,desiccation of potato leaves (in words),"low concentration (160 g/l), after 17 days",sufficient desiccation
